Data set [1] has as its system PDE4. Nature of the data set: Inhibition of PDE4 activity ([3H]cAMP hydrolysis, cytosol from human neutrophils). The note with it: 0.5 μM cAMP, Motapizone (1 μM) included to suppress PDE3 activity, 15 min at 37° C. In kind it is biochemical. The method, then:
Method for Measuring Inhibition of PDE4 Activity
PDE4 activity was determined as described by Thompson et al. (Adv Cycl Nucl Res 10: 69-92, 1979) with some modifications (Bauer and Schwabe, Naunyn-Schmiedeberg's Arch Pharmacol 311: 193-198, 1980). At a final assay volume of 200 μl (96 well microtiter plates) the assay mixture contained 20 mM Tris (pH 7.4), 5 mM MgCl2, 0.5 μM cAMP, [^3H]cAMP (about 30,000 cpm/assay), the test compound and an aliquot of cytosol from human neutrophils which mainly contains PDE4 activity as described by Schudt et al. (Naunyn-Schmiedeberg's Arch Pharmacol 344: 682-690, 1991); the PDE3-specific inhibitor Motapizone (1 μM) was included to suppress PDE3 activity originating from contaminating platelets. Serial dilutions of the compounds were prepared in DMSO and further diluted 1:100 (v/v) in the assays to obtain the desired final concentrations of the inhibitors at a DMSO concentration of 1% (v/v) which by itself only slightly affected PDE4 activity.
After preincubation for 5 min at 37° C., the reaction was started by the addition of substrate (cAMP) and the assays were incubated for further 15 min at 37° C. 50 μl of 0.2 N HCl was added to stop the reaction and the assays were left on ice for about 10 min. Following incubation with 25 μg 5′-nucleotidase (Crotalus atrox snake venom) for 10 min at 37° C., the assays were loaded on QAE Sephadex A-25 (1 ml bed volume). The columns were eluted with 2 ml of 30 mM ammonium formiate (pH 6.0) and the eluate was counted for radioactivity. Results were corrected for blank values (measured in the presence of denatured protein) which were below 5% of total radioactivity. […] The IC50 -values for the compounds according to the invention for the inhibition of the PDE4 activity were determined from the concentration-inhibition curves by nonlinear-regression.
The inhibitory values determined for the compounds according to the invention follow from the following table A, in which the numbers of the compounds correspond to the numbers of the examples.

Structures are written as SMILES.

Consider `COc1ccc(C2=NN(C3CCN(c4ncnc5sccc45)CC3)C(=O)[C@@H]3CC=CC[C@H]23)cc1OC` [compound 16, (4aS,8aR)-4-(3,4-Dimethoxyphenyl)-2-(1-thieno[2,3-d]pyrimidin-4-yl-piperidin-4-yl)-4a,5,8,8a-tetrahydro-2H-phthalazin-1-one], for which the melting point lay in the range of 219 to 220 °C. Besides, in data set [1], the “Inhibition of PDE4 acitivity [measured as -logIC50 (mol/l)]” value was 10.50.

`COc1ccc(C2=NN(C3CCN(C(=O)N4CCOCC4)CC3)C(=O)[C@@H]3CC=CC[C@H]23)cc1OC` [compound 13, (4aS,8aR)-4-(3,4-Dimethoxyphenyl)-2-[1-(morpholine-4-carbonyl)-piperidin-4-yl]-4a,5,8,8a-tetrahydro-2H-phthalazin-1-one] registered a melting point of 184 to 185 °C. The “Inhibition of PDE4 acitivity [measured as -logIC50 (mol/l)]” value in data set [1] came out at 10.03.

Regarding `COc1ccc(C2=NN(C3CCN(CC(=O)c4cc(Cl)c(N)c(Cl)c4)CC3)C(=O)[C@@H]3CC=CC[C@H]23)cc1OC.Cl` [compound 14, (4aS,8aR)-2-{1-[2-(4-Amino-3,5-dichloro-phenyl)-2-oxo-ethyl]-piperidin-4-yl}-4-(3,4-dimethoxy-phenyl)-4a,5,8,8a-tetrahydro-2H-phthalazin-1-one hydrochloride], the melting point was 206 °C (dec.). The “Inhibition of PDE4 acitivity [measured as -logIC50 (mol/l)]” value in data set [1] was found to be 10.33.

`COc1ccc(C2=NN(C3CCN(Cc4ccccn4)CC3)C(=O)[C@@H]3CC=CC[C@H]23)cc1OC.Cl.Cl` [compound 24, (4aS,8aR)-4-(3,4-Dimethoxy-phenyl)-2-(1-pyridin-2-ylmethyl-piperidin-4-yl)-4a,5,8,8a-tetrahydro-2H-phthalazin-1-one dihydrochloride] showed a melting point of 214 to 216 °C. Besides, the “Inhibition of PDE4 acitivity [measured as -logIC50 (mol/l)]” value in data set [1] was 10.63.

`COc1ccc(C2=NN(C3CCN(Cc4ccncc4)CC3)C(=O)[C@@H]3CC=CC[C@H]23)cc1OC` [compound 12, (4aS,8aR)-4-(3,4-Dimethoxyphenyl)-2-(1-pyridin-4-ylmethyl-piperidin-4-yl)-4a,5,8,8a-tetrahydro-2H-phthalazin-1-one] gave a melting point of 196 to 197 °C. The “Inhibition of PDE4 acitivity [measured as -logIC50 (mol/l)]” value in data set [1] amounted to 10.79.

The compound `COc1ccc(C2=NN(C3CCN(Cc4ccc5ccc(=O)oc5c4)CC3)C(=O)[C@@H]3CC=CC[C@H]23)cc1OC.Cl` [compound 18, (4aS,8aR)-4-(3,4-Dimethoxyphenyl)-2-[1-(2-oxo-2H-chromen-7-ylmethyl)-piperidin-4-yl]-4a,5,8,8a-tetrahydro-2H-phthalazin-1-one hydrochloride] displayed a melting point of 264 to 267 °C. In data set [1], the “Inhibition of PDE4 acitivity [measured as -logIC50 (mol/l)]” value worked out at 10.32.

(Values after US7531540B2, “Phthalazinone-piperidino-derivatives as PDE4 inhibitors” (Nycomed GmbH, priority 2001, dated 2009).)
